Results as given in patent US10835533B2, “1 -((3S,4R)-4-(3-fluorophenyl)-1-(2-methoxyethyl)pyrrolidin-3-yl)-3-(4-methyl-3-(2-methylpyrimidin-5-yl)-1-phenyl-1H-pyrazol-5-yl)urea as a TrkA kinase inhibitor” (Array BioPharma Inc., priority 2014, dated 2020).
pIC50: −log10 of the molar value. Marks after values point to notes of the source that are not given here.

Legend:
[1] = Predicted human IV clearance (microsomal CLh/correction factor); conditions: for in vivo/in vitro correction factor: pre-clinical mean correction factor for all species tested; for IV clearance (predicted): predicted from human microsomal CLh and mean pre-clinical correction factor
Method: In Table 1, the predicted human IV clearance values were calculated from compound concentration-versus-time data in plasma collected from pre-clinical species (mouse, rat, dog and monkey) following 1 mg/kg intravenous (IV) doses. Concentrations of compound in plasma were measured by LC-MS (liquid chromatography-mass spectrometry). AUCinf values (Area under the plasma concentration-time curve for a dosing interval from time 0 extrapolated to infinity) for individual Cp/t curves (concentration of the drug in plasma at any time t) were determined using linear-trapezoidal integration and first order extrapolation from terminal points of the Cp/t curves, and clearance (CL) was calculated using Dose/AUCinf.
The in vivo/in vitro correction factor was then determined by dividing the […]. The arithmetic mean of the pre-clinical correction factors for each compound was used to predict the human IV clearance from the measured human microsomal CLh (CLh/correction factor).

[2] = target: T1, His-tagged recombinant human TrkA (Homo sapiens, UniProt P04629); assay: TrkA LanthaScreen Eu Kinase Binding Assay (Example A); conditions: assay of Example A; 60-minute incubation at 22° C.; read-out: averaged IC50 value, TrkA binding
T1 construct: 6HIS tagged cytoplasmic domain from Invitrogen, Catalog No. PV3144; purchased Invitrogen PV3144
T1 sequence (P04629 440-796 limits assumed): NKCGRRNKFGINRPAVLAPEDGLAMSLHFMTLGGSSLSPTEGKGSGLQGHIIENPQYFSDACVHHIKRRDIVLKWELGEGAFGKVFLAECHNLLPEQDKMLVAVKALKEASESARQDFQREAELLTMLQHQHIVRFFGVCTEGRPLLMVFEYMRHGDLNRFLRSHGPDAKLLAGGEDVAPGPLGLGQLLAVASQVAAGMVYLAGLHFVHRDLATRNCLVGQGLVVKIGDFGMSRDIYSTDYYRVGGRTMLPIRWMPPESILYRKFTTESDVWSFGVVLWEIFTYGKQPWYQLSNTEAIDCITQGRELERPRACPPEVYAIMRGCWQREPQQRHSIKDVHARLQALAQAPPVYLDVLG
Method: TrkA binding activity was determined in a TrkA LanthaScreen™ Eu Kinase Binding Assay. 5 nM His-tagged recombinant human TrkA (6HIS tagged cytoplasmic domain from Invitrogen, Catalog No. PV3144) was incubated with 4 nM Alexa-Fluor® Tracer 236 (Invitrogen Catalog No. PV5592), 2 nM biotinylated anti-His (Invitrogen Cat. No. PV6090), and 2 nM europium-labeled Streptavidin (Invitrogen Cat. No. PV5899), in buffer (25 mM MOPS, pH 7.5, 5 mM MgCl2, 0.005% Triton X-100). Three fold serial dilutions of Compound 1, compound 2 or compound 3 in DMSO were added to a final percentage of 2% DMSO. After 60-minute incubation at 22° C., the reaction was measured using the EnVision mutlimode plate reader (PerkinElmer) via TR-FRET dual wavelength detection at […]. The percent of control was calculated using a ratiometric emission factor. The IC50 value was determined by fitting a four parameter model to the percent of control data.

[3] = Liver microsomal clearance, human; format: in vitro ADME; conditions: pH 7.4; Human liver microsomes; 1 mg/mL; 20 minutes
Method: (§1) The predicted hepatic clearance (CLh) value was calculated by scaling the in vitro half-life (t1/2) for stability of the compound in liver microsomes (1 mg/mL; 20 minutes) using the physical and physiological scaling factors used to predict intrinsic clearance (CLint) and hepatic clearance (CLhep) listed in Table 2 and employed in the following equations: […]
(§2) where D is the amount of cytochrome P450-related protein per mass of liver, W is the average mass of liver present per weight of animal, C is the liver microsomal concentration, and Q is the species-dependent hepatic blood flow.
(§3) A 100 mM potassium phosphate assay buffer solution (KPB) was prepared as follows. Both KH2PO4 and K2HPO4 were dissolved separately in reagent grade water resulting in final concentrations 100 mM. A 75:25 mixture v/v of K2HPO4:KH2PO4 was prepared and the pH of the solution was adjusted to 7.4 using diluted HCl or diluted NaOH solutions. Stock solutions of Compound 1, Compound 2 and Compound 3 were prepared at 10 mM (active compound) in DMSO. The stock solution was diluted immediately before use to 2.5 μM using the KPB solution to create the working standard. All test compounds were completely soluble in DMSO by visual inspection at room temperature. The NADPH-regenerating solution (NRS) was prepared on the day of analysis by diluting one volume of 17 mg/mL NADP^+ with one volume of 78 mg/mL glucose-6-phosphate (both prepared in KPB, pH 7.4) and 7.9 volumes of 20 mM MgCl2. The final concentrations of NADP^+ and glucose-6-phosphate were 1.7 mg/mL and 7.8 mg/mL, respectively. […]
(§4) All calculations were performed using BioAssay Enterprise. The mean peak area ratios were calculated by averaging the peak area ratios (n=2) of Compound 1, Compound 2, Compound 3, and the internal standard for each sample. Percent remaining was calculated by determining the ratio of the peak area ratio at each time point to the peak area ratio of the time-zero samples. The rate of loss of test compound (km) was determined by linear regression of −ln(f(t)) versus time. […] The t1/2 was determined dividing ln(2) by km. […]

[4] = Liver microsomal clearance, monkey; format: in vitro ADME; conditions: pH 7.4; Monkey liver microsomes; 1 mg/mL; 20 minutes
Method: as §1, §2, §3, §4

in vivo/in vitro correction factor [1]	IV clearance (predicted) [1]	pIC50 [2]	CLhep predicted at 1 μM [3] [mL/min/kg]	CLhep predicted at 1 μM [4] [mL/min/kg]	SMILES
2.09 ***	5 (predicted)** mL/min/kg	8.96	9.8	33	COCCN1C[C@@H](NC(=O)Nc2c(C)c(-c3cnc(C)nc3)nn2-c2ccccc2)[C@H](c2cccc(F)c2)C1 [Compound 1, 1-((3S,4R)-4-(3-fluorophenyl)-1-(2-methoxyethyl)pyrrolidin-3-yl)-3-(4-methyl-3-(2-methylpyrimidin-5-yl)-1-phenyl-1H-pyrazol-5-yl)urea]
1.32 ***	12 (predicted)** mL/min/kg	8.82	14	38	COCCN1C[C@@H](NC(=O)Nc2c(C)c(-c3cnc(C)nc3)nn2-c2ccccc2)[C@H](c2ccc(F)c(F)c2)C1 [Compound 2, 1-((3S,4R)-4-(3,4-difluorophenyl)-1-(2-methoxyethyl)pyrrolidin-3-yl)-3-(4-methyl-3-(2-methylpyrimidin-5-yl)-1-phenyl-1H-pyrazol-5-yl)urea]
0.96 ***	10 (predicted)** mL/min/kg	8.77	10	32	COCCN1C[C@@H](NC(=O)Nc2c(C)c(-c3cnn(C)c3)nn2-c2ccccc2)[C@H](c2ccc(F)cc2)C1 [Compound 3, 1-(1′,4-dimethyl-1-phenyl-1H,1′H-[3,4′-bipyrazol]-5-yl)-3-((3S,4R)-4-(4-fluorophenyl)-1-(2-methoxyethyl)pyrrolidin-3-yl)urea]
